The target in this assay is recombinant DYRK1A kinase (Homo sapiens (Human), UniProt Q13627). Nature of the assay: DYRK1A kinase assay (Ser/Thr 18 peptide Z-lyte FRET). It is filed as biochemical. The settings on record: DYRK1A kinase activity, Z-lyte Ser/Thr 18 peptide, 15 μM ATP; method text calls the value IC50; read-out: EC50 (the source's name). The method, boiled down:
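Z-lyte FRET: recombinant DYRK1A 0.25 μg/mL, ATP 15 μM, Ser/Thr 18 peptide 4 μM, with compound (11-point 1:3, 10 μM top) 1 h at room temperature, then development reagent 1 h. Coumarin/fluorescein emission ratio converted to % phosphorylation; IC50 by non-linear regression, duplicates.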

For 21 compounds, IC50 results are on record in US20240002391A1, “4-ALKOXYPYRROLO[2,1-F][1,2,4]TRIAZINES AND PREPARATION AND USES THEREOF” (BioSplice Therapeutics, Inc., priority 2022, published 2024).

Structures are written as SMILES.

With `COc1nc(NC2CCC3(CC2)CN(C(C)=O)C3)nn2ccc(-c3cnc4nccn4c3)c12` [Compound 273, 1-(7-((5-(Imidazo[1,2-a]pyrimidin-6-yl)-4-methoxypyrrolo[2,1-f][1,2,4]triazin-2-yl)amino)-2-azaspiro[3.5]nonan-2-yl)ethan-1-one], the IC50 was 1.8 nM.

Take `COc1nc(NC2CC3(CCOCC3)C2)nn2ccc(-c3ccc4nccnc4c3)c12` [Compound 1100, 4-Methoxy-5-(quinoxalin-6-yl)-N-(7-oxaspiro[3.5]nonan-2-yl)pyrrolo[2,1-f][1,2,4]triazin-2-amine]: the IC50 is 6.7 nM.

For the compound `COc1nc(N[C@H]2CCN(C(C)=O)C[C@H]2F)nn2cc(F)c(-c3ccc4ncccc4c3)c12` [Compound 1061, 1-((3R,4S)-3-Fluoro-4-((6-fluoro-4-methoxy-5-(quinolin-6-yl)pyrrolo[2,1-f][1,2,4]triazin-2-yl)amino)piperidin-1-yl)ethan-1-one], the IC50 amounted to 0.9 nM.

For `COc1nc(N[C@@H]2CCN(C)C[C@@H]2F)nn2ccc(-c3ccc4nccnc4c3)c12` [Compound 367, N-((3S,4R)-3-Fluoro-1-methylpiperidin-4-yl)-4-methoxy-5-(quinoxalin-6-yl)pyrrolo[2,1-f][1,2,4]triazin-2-amine], the IC50 worked out at 3.3 nM.

Consider `COc1nc(N[C@@H]2CCN(C)CC2(F)F)nn2ccc(-c3cc(F)c4nccn4c3)c12` [Compound 434, (R)—N-(3,3-Difluoro-1-methylpiperidin-4-yl)-5-(8-fluoroimidazo[1,2-a]pyridin-6-yl)-4-methoxypyrrolo[2,1-f][1,2,4]triazin-2-amine], for which the IC50 worked out at 4.9 nM.

With `COc1nc(N[C@H]2CC[C@@](C)(O)CC2)nn2ccc(-c3cc(F)c4nnn(CC(F)F)c4c3)c12` [Compound 810, (1s,4s)-4-((5-(1-(2,2-Difluoroethyl)-4-fluoro-1H-benzo[d][1,2,3]triazol-6-yl)-4-methoxypyrrolo[2,1-f][1,2,4]triazin-2-yl)amino)-1-methylcyclohexan-1-ol], the IC50 worked out at 10.9 nM.

Regarding `COc1nc(N[C@@H]2CCN(C(=O)C3(C#N)CC3)CC2(F)F)nn2ccc(-c3ccc4nnn(CC(F)F)c4c3)c12` [Compound 791, (R)-1-(4-((5-(1-(2,2-Difluoroethyl)-1H-benzo[d][1,2,3]triazol-6-yl)-4-methoxypyrrolo[2,1-f][1,2,4]triazin-2-yl)amino)-3,3-difluoropiperidine-1-carbonyl)cyclopropane-1-carbonitrile], the IC50 is 2.2 nM.

In the case of `COc1nc(NC2CCC(F)(F)CC2)nn2ccc(-c3ccc4ncnn4c3)c12` [Compound 193, 5-([1,2,4]Triazolo[1,5-a]pyridin-6-yl)-N-(4,4-difluorocyclohexyl)-4-methoxypyrrolo[2,1-f][1,2,4]triazin-2-amine], the IC50 turned out to be 19.9 nM.

Regarding `CNC(=O)[C@]1(C)C[C@H](Nc2nc(OC)c3c(-c4ccc5nnn(C)c5c4)ccn3n2)C1` [Compound 209, cis-3-((4-Methoxy-5-(1-methyl-1H-benzo[d][1,2,3]triazol-6-yl)pyrrolo[2,1-f][1,2,4]triazin-2-yl)amino)-N,1-dimethylcyclobutane-1-carboxamide], the IC50 stood at 8.8 nM.

Regarding `CCN1CC[C@@H](Nc2nc(OC)c3c(-c4ccc5nnn(CC(F)F)c5c4)ccn3n2)C(F)(F)C1` [Compound 780, (R)-5-(1-(2,2-Difluoroethyl)-1H-benzo[d][1,2,3]triazol-6-yl)-N-(1-ethyl-3,3-difluoropiperidin-4-yl)-4-methoxypyrrolo[2,1-f][1,2,4]triazin-2-amine], the IC50 turned out to be 1.9 nM.

For the compound `COc1nc(NC2CCN(C3CC(F)(F)C3)CC2)nn2ccc(-c3ccc4ncccc4c3)c12` [Compound 306, N-(1-(3,3-Difluorocyclobutyl)piperidin-4-yl)-4-methoxy-5-(quinolin-6-yl)pyrrolo[2,1-f][1,2,4]triazin-2-amine], the IC50 was determined as 28.2 nM.

Consider `[2H]C([2H])([2H])O[C@H]1CC[C@@H](Nc2nc(OC)c3c(-c4cnc5nccn5c4)ccn3n2)CC1` [Compound 245, 5-(Imidazo[1,2-a]pyrimidin-6-yl)-4-methoxy-N-(cis-4-(methoxy-d3)cyclohexyl)pyrrolo[2,1-f][1,2,4]triazin-2-amine], for which the IC50 came to 0.7 nM.

With `COc1nc(NC2CCC(=O)N(C)C2)nn2ccc(-c3ccc4nnn(CC(F)F)c4c3)c12` (stereo not drawn) [Compound 793, 5-((5-(1-(2,2-Difluoroethyl)-1H-benzo[d][1,2,3]triazol-6-yl)-4-methoxypyrrolo[2,1-f][1,2,4]triazin-2-yl)amino)-1-methylpiperidin-2-one], the IC50 was determined as 1.3 nM.

Regarding `COc1nc(NC2CC3(C2)CN(C(=O)OC(C)(C)C)C3)nn2ccc(-c3ccn4nccc4c3)c12` [Compound 92, tert-Butyl 6-((4-methoxy-5-(pyrazolo[1,5-a]pyridin-5-yl)pyrrolo[2,1-f][1,2,4]triazin-2-yl)amino)-2-azaspiro[3.3]heptane-2-carboxylate], the IC50 stood at 62.6 nM.

As to `COc1nc(N[C@@H]2CCN(C3COC3)CC2(F)F)nn2ccc(-c3cc(F)c4nc(C)n(CC(F)F)c4c3)c12` [Compound 164, (R)—N-(3,3-Difluoro-1-(oxetan-3-yl)piperidin-4-yl)-5-(1-(2,2-difluoroethyl)-4-fluoro-2-methyl-1H-benzo[d]imidazol-6-yl)-4-methoxypyrrolo[2,1-f][1,2,4]triazin-2-amine], the IC50 is 2.1 nM.

For `COc1nc(N[C@H]2CCN(C(=O)C3(C#N)CC3)C[C@H]2F)nn2ccc(-c3ccc4nnn(CC(F)F)c4c3)c12` [Compound 776, 1-((3R,4S)-4-((5-(1-(2,2-Difluoroethyl)-1H-benzo[d][1,2,3]triazol-6-yl)-4-methoxypyrrolo[2,1-f][1,2,4]triazin-2-yl)amino)-3-fluoropiperidine-1-carbonyl)cyclopropane-1-carbonitrile], the IC50 came out at 0.5 nM.

Take `COc1nc(NC2CC3(C2)CN(C(C)=O)C3)nn2ccc(-c3ccn4nccc4c3)c12` [Compound 37, 1-(6-((4-Methoxy-5-(pyrazolo[1,5-a]pyridin-5-yl)pyrrolo[2,1-f][1,2,4]triazin-2-yl)amino)-2-azaspiro[3.3]heptan-2-yl)ethan-1-one]: the IC50 came to 2.5 nM.

For `CCN1CC[C@@H](Nc2nc(OC)c3c(-c4ccc5nnn(C)c5c4)ccn3n2)C(F)(F)C1` [Compound 627, (R)—N-(1-Ethyl-3,3-difluoropiperidin-4-yl)-4-methoxy-5-(1-methyl-1H-benzo[d][1,2,3]triazol-6-yl)pyrrolo[2,1-f][1,2,4]triazin-2-amine], the IC50 was 3.9 nM.

For `[2H]C([2H])([2H])Oc1nc(N[C@H]2CC[C@](C)(O)CC2)nn2ccc(-c3ccc4nccnc4c3)c12` [Compound 348, trans-4-((4-(Methoxy-d3)-5-(quinoxalin-6-yl)pyrrolo[2,1-f][1,2,4]triazin-2-yl)amino)-1-methylcyclohexan-1-ol], the IC50 worked out at 2.3 nM.

With `COc1nc(N[C@H]2C[C@](C)(N)C2)nn2ccc(-c3ccc4nnn(C)c4c3)c12` [Compound 203, trans-N^1-(4-methoxy-5-(1-methyl-1H-benzo[d][1,2,3]triazol-6-yl)pyrrolo[2,1-f][1,2,4]triazin-2-yl)-3-methylcyclobutane-1,3-diamine], the IC50 is 7.5 nM.

`COc1nc(N[C@H](C)c2ccccc2)nn2ccc(-c3cnc4nccn4c3)c12` [Compound 233, (R)-5-(Imidazo[1,2-a]pyrimidin-6-yl)-4-methoxy-N-(1-phenylethyl)pyrrolo[2,1-f][1,2,4]triazin-2-amine]: the IC50 is 6.8 nM.
